Results published in patent US12716890B2, “Macro tissue explant, methods and uses therefor” (Massachusetts Institute of Technology, priority 2017, dated 2026).
Where two headings read alike, the source gives them in different places. Each block holds one molecule with its values, some of them ahead of it. Numbered stars: 1 amine (or outer) side, 2 acyl side, 3 side chain; on linkers, the order of the positions; unused ones are H or OH. Bridge positions count the residues as written; N and C are the ends. Peptide text beside a SMILES is read from it. X1 = O=C(CCC[*:2])[*:1]

What was measured:
[1] = test system: gastrointestinal tissue explants derived from either the esophagus, stomach or small intestine
[2] = test system: intestinal tissue explant; assay type: in vitro ADME, pigs
Method: To assemble the intestinal tissue explant system, freshly isolated intestinal tissue from the jejunum was prepared according to the described tissue dissection procedure and mounted on the manufactured interface design with a generic 96 well plate as a receiver plate (Corning® 96 well plates, clear bottom, Corning) or a UV transparent plate (Corning® 96-well UV Plates, Corning). The jejunum was identified as the region of the small intestine approximately 50 cm after the pylorus. The difference between the jejunum and ileum was determined based on anatomical location, the structural differences of the tissue, differences in blood supply, and fat deposition as well as the presence of lymphoid tissue. For the system in 384-well format, a 384 microplate with glass bottom (Greiner Sensoplate™ glass bottom multiwall plates, Sigma) were used. The tissue was then cultured in this system according to the described cultivation protocol for specific ex vivo cultivation time periods. Intestinal perfusion experiments using the system were conducted only once after 24 hours of ex vivo cultivation unless otherwise noted.
For perfusion experiments the following set up was used: Formulation samples were prepared using a liquid handling station (Evo 150 liquid handling deck, Tecan), an automated dispenser (EL406 Combination Washer Dispenser, BioTek Instruments) was used to fill receiver 96 well plates, a microplate reader (Infinite® M1000 PRO, Tecan) was then used for spectrophotometric analysis. Specifically, formulation samples were prepared following a protocol to mix the pre-pared excipient plate 10 times, pipette the appropriate amount of excipient and dispense into a 96-well plate with the appropriate amount of compound already it in. The excipient/compound formulations were then mixed 60 times and then the appropriate amount was pipetted and dispensed onto the tissue explant. All experiments, including sample incubation, were performed at room temperature. […]

GLP-1 (7-36) = assay: GLP-1 stimulation of intestinal tissue explant, ELISA of GLP-1 (7-36); assay type: cell-based, pigs; conditions: varying doses for 24 hours
Method: As determined in Example 1, the intestinal tissue explant comprises endocrine cells, determined by the expression of […] and Glucagon-like peptide-1 (GLP-1). Therefore, the ability of the intestinal tissue explant to respond to known GLP-1 stimulants was investigated. Specifically, acetylcholine, LiCl, and glucose were added to the intestinal tissue explant at varying doses for 24 hours, then cells within the apical side of the intestinal epithelium were isolated. The concentration of active cleaved peptide of GLP-1 (GLP-1 (7-36)) of these cell lysates was determined by ELISA analysis. […] The stimulation of GLP-1 secretion by acetylcholine, LiCl and glucose, which act through different pathways, indicated these pathways were intact in the intestinal tissue explant. The Acetylcholine and LiCl act as non-nutrient stimulators of GLP-1 that are reported to simulate GLP-1 activity via neuronal regulation. Glucose triggers GLP-1 activity via nutrient-based pathways.

[3] = Pharmacokinetic validation in vivo, formulation delivered to duodenum, oxytocin serum ELISA; conditions: female, Yorkshire, pig, po, pigs, formulation delivered directly to the duodenum, read-out: bioavailability of oxytocin (absolute / average oral)
Method: All animal procedures were conducted in accordance with protocols approved by the Massachusetts Institute of Technology Committee on Animal Care. For tissue experiments, fresh tissue was obtained from local abattoirs within 20 minutes of euthanization.
Pharmacokinetic validation was performed in vivo. Female Yorkshire pigs between 45 and 50 kg in weight were used. Before every experiment, the animals were fasted overnight and on the day of the procedure, the morning feed was held. The animals were sedated with an intramuscular injection of Telazol (tileramine/zolazepam) 5 mg/kg, xylazine 2 mg/kg and atropine 0.04 mg/kg. The duodenum was accessed endoscopically and the formulation directly delivered to the duodenum. Serial blood sampling from the peripheral veins was performed for quantification of oxytocin. For oxytocin serum quantification, an Oxytocin ELISA kit (Cat. no. ab133050, Abcam) was used according to the manufacturer's protocol. […] To investigate the mechanism of absorption enhancement and to analyze potential local effects of the formulation on the small intestine histologically, a surgical procedure coupled with custom-made devices was developed, that enabled controlled exposure of the formulation on a defined area of the intestinal tissue. E-cadherin stained sections of biopsy samples were used to analyze the disruption of cell-cell adhesions.

MDR-1 = target: T1, MDR-1 (Sus scrofa, UniProt K7GMM7); assay: Perfusion of substrate through siRNA-transfected intestinal tissue explant; assay type: in vitro ADME, pigs
T1 construct: from tissue; host or cells: pig small intestine explant, cultured ex vivo
T1 sequence (K7GMM7 1-1248): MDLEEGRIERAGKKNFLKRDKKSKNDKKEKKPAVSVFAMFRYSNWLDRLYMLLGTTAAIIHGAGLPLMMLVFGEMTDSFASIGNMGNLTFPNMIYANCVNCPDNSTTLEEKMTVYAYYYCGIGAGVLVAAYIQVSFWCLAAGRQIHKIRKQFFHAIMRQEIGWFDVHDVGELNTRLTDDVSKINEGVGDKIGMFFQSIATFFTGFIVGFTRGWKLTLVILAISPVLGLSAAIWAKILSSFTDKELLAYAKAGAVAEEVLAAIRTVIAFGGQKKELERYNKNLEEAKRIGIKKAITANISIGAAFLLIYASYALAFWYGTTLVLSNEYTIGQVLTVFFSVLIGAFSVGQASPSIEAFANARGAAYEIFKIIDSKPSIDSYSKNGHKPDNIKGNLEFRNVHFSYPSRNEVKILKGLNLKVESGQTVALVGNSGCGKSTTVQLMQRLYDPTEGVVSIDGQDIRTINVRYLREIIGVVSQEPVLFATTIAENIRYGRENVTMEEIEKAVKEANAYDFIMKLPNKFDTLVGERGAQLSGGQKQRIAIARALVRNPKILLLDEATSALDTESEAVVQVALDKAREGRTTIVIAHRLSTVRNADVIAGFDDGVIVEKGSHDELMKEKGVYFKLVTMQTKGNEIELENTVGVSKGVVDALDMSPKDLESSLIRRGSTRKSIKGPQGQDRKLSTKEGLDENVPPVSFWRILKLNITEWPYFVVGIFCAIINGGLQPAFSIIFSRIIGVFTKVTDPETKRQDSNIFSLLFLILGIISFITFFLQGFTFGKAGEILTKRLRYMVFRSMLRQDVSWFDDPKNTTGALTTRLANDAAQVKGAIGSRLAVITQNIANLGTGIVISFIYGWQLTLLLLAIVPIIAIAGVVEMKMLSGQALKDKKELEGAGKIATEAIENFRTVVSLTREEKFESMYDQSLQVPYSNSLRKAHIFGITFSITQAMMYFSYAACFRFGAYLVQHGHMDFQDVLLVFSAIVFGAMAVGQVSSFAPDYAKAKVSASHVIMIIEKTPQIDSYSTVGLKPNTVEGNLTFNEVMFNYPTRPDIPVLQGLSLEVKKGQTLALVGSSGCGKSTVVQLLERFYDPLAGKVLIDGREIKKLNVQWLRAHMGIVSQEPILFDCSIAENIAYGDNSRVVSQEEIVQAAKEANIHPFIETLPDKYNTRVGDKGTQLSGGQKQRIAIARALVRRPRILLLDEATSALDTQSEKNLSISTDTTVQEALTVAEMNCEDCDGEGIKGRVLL
Method: Specifically, siRNA was delivered to tissue explants using ultrasound by applying 5 second intervals for 1 minute for 40 kHz generated using a separate ultrasound generator (Sonics and Materials, Inc.) and a custom made 96 tip probe. The following siRNAs at concentrations of 1 μm in deionized water were used: Silencer® Select Pre-Designed siRNA (siRNA ID: s3846, Gene Symbol: CYP3A4), Silencer® Select Pre-Designed siRNA (siRNA ID: s10419, Gene Symbol: ABCB1), Silencer® Select Negative Control No. 1 siRNA.

Molecule: C=O [formalin]
tissue viability ([1]; 24 hours exposure, different concentrations in PBS, esophagus, stomach or small intestine explants): dose-dependent chemically induced decrease in tissue viability

Molecule: Polyethyleneimine [Polyethyleneimine (800 Da, end-capped)]
intestinal perfusion of oxytocin formulated with excipient [2]: increased the intestinal perfusion of oxytocin several fold

Molecule: [Cl-].[Li+] [LiCl]
concentration of GLP-1 (7-36) in cell lysates (GLP-1 (7-36)): increased concentration so of GLP-1 (7-36) in a dose-dependent manner

Molecule: CCO [ethanol]
tissue viability [1]: dose-dependent chemically induced decrease in tissue viability

Molecule: Alexa488-insulin: human insulin (recombinant) labeled with Alexa Fluor 488 NHS Ester
intestinal absorption/perfusion of model drug formulated with polyethyleneimine (800 Da, end-capped) [2]: increase the intestinal absorption to various degrees

intestinal absorption/perfusion of model drug formulated with polyethyleneimine (800 Da, end-capped) [2]: limited increase in intestinal perfusion
Molecule: CC[C@H](C)[C@@H]1NC(=O)[C@H](Cc2ccc(OC)cc2)NC(=O)CCCSC[C@@H](C(=O)N2CCC[C@H]2C(=O)N[C@@H](CC(C)C)C(=O)NCC(N)=O)NC(=O)[C@H](CC(N)=O)NC(=O)[C@H](CCC(N)=O)NC1=O [carbetocin] (Y(Me)IQNCPLG-NH2; linker N-5 via X1)

bioavailability [3]: 0.64%
Molecule: CC[C@H](C)[C@@H]1NC(=O)[C@H](Cc2ccc(O)cc2)NC(=O)[C@@H](N)CSSC[C@@H](C(=O)N2CCC[C@H]2C(=O)N[C@@H](CC(C)C)C(=O)NCC(N)=O)NC(=O)[C@H](CC(N)=O)NC(=O)[C@H](CCC(N)=O)NC1=O [oxytocin]

Molecule: CO [methanol]
tissue viability [1]: dose-dependent chemically induced decrease in tissue viability

perfusion after knock-down of MDR-1 (MDR-1): significant change of perfusion
Molecule: CNC(=C[N+](=O)[O-])NCCSCc1ccc(CN(C)C)o1 [ranitidine]
